The results in this text go back to article PMC6337261, “Short Peptides with Uncleavable Peptide Bond Mimetics as Photoactivatable Caspase-3 Inhibitors” (Molecules, 2019).

Data set [1] relates to caspase-3. Put plainly: Competitive ABPP with ψ(CH2NH) peptides irradiated in presence of spiked-in benzophenone. The data set is classed as biochemical. As to conditions: for Inhibition of caspase-3 after irradiation with benzophenone: irradiated in presence of an equimolar amount (1 eq) of benzophenone. An excerpt:
(§1) The presence of a ψ(CH2NH) peptide with benzophenone or UV irradiation alone was not sufficient for inhibition, but all needed to be present to block the caspase-3 active site (Figure 3G,H). We hypothesized that the active species is a peptide aldehyde, formed by oxidation of the ψ(CH2NH) moiety (see also discussion in Section 3). To support this hypothesis, we performed an experiment in which this aldehyde was trapped by sodium bisulfite, forming a sodium bisulfite adduct.
(§2) Although this points towards a cyclization rather than reaction with a water molecule, it is not clear whether it leads to a potent caspase inhibitor. […] Therefore, cyclization seemed improbable, as this would most likely lead to a shift in retention time. We hypothesized that irradiation could potentially lead to oxidation of a very small amount of the ψ(CH2NH) moiety with benzophenone as a photosensitizer, resulting in minute quantities of aldehydes that were not detected on LC-MS, but were sufficient for caspase-3 inhibition. Oxidation of secondary amines under influence of benzophenone has been reported before. […] Note that triazoles cannot undergo this transformation, further explaining their inactivity. The oxidation hypothesis was supported by an experiment in which ψ(CH2NH) peptides 14 and 15, not containing a benzophenone, were irradiated in the presence of 1 eq of spiked-in benzophenone (Figure 3G–I).
Caspase-3, produced in E. coli and purified as described before, was reacted in PBS with 1 mM DTT. Samples were combined with the indicated probe and irradiated with a handheld UV lamp at 365 nm for 30 min at room temperature. […]
Figure 3 Non-covalent inhibition of caspase-3 by compounds 9 and 10. […] (G) UV irradiation of ψ(CH2NH) peptides 14 and 15 in the presence of benzophenone leads to inhibition of caspase-3, as monitored by competitive ABPP. […] Ac-DEVD-aldehyde (100 nM) was used as a control compound, whereas 9a and 10a (10 μM) were irradiated for 10 min and reacted with sodium bisulfite for an additional 20 min before 30 min incubation with caspase-3 and read-out with a fluorescent caspase ABP.

Data set [2] relates to caspase-3. The experiment in a line: Competitive ABPP with bisulfite aldehyde quenching. It counts as biochemical.
From the text: as §1
Compounds were incubated with or without irradiation (10 min) in PBS with or without 10 mM NaHSO3 and incubated for another 20 min before addition to caspase-3. After 30 min, ABP 13 was added (final concentration 1 μM) to label residual caspase activity. The samples were incubated for 30 min at room temperature, after which 1/3rd volume of 4× Laemmli buffer was added. Samples were processed in the same way as under Section 4.4.1.
(§3) Figure 3 Non-covalent inhibition of caspase-3 by compounds 9 and 10. (A) Fluorescent labeling of caspase-3 by ψ(CH2NH) peptides 9–10 and triazolo peptides 11–12. […] (B) Deconvoluted ESI-MS of caspase-3. (C) Deconvoluted ESI-MS of caspase-3 after incubation with covalent activity-based probe (ABP) 13. Note that the active site, located on the large subunit, is modified. (D) Deconvoluted ESI-MS of caspase-3 after irradiation in the presence of benzophenone ψ(CH2NH) 10a, not resulting in covalent modification. […] (F) Structures of ψ(CH2NH) peptides 14 and 15 without photocrosslinker. (G) UV irradiation of ψ(CH2NH) peptides 14 and 15 in the presence of benzophenone leads to inhibition of caspase-3, as monitored by competitive ABPP. […] Ac-DEVD-aldehyde (100 nM) was used as a control compound, whereas 9a and 10a (10 μM) were irradiated for 10 min and reacted with sodium bisulfite for an additional 20 min before 30 min incubation with caspase-3 and read-out with a fluorescent caspase ABP.

For data set [3], the system named is caspase-3. Put plainly: Gel-based competitive ABPP on recombinant caspase-3. It counts as biochemical. To be noted: for Inhibition of caspase-3 activity (caspase ABP labeling): PBS with 1 mM DTT, fluorescent ABP read-out on gel; for Inhibition of caspase-3 (competitive ABPP, Figure S1): triazolo peptides at 100 μM. The protocol: (§4) To check whether our probes function as inhibitors, competitive ABPP [28] was performed. Recombinant caspase-3 was incubated with probes 9a–10c, 11a and 12a with or without irradiation at 365 nm, followed by labeling of residually active caspase-3 with the fluorescent, caspase-directed activity-based probe (ABP) SV149, a tetramethylrhodamine derivative of KMB-01 [29]. Caspase activity itself was not affected by UV irradiation, as shown by bands of equal intensity with and without UV light (Figure 2A). […] To confirm inhibition, we also performed substrate cleavage assays using the fluorogenic aminomethyl coumarin substrate Ac-DEVD-AMC. […] Inhibition of active caspases could also be achieved in an apoptotic cell lysate (Figure 2D).
(§5) Caspase-3, produced in E. coli and purified as described before, was reacted in PBS with 1 mM DTT. Samples were combined with the indicated probe and irradiated with a handheld UV lamp at 365 nm for 30 min at room temperature. For competition experiments with ‘pre-activation,’ the indicated probes were irradiated for 30 min prior to addition to caspase-3, and incubated for an additional 30 min. Next, ABP 13 was added (final concentration 1 μM) to label residual caspase-3 activity. The samples were incubated for 30 min at room temperature, after which 1/3rd volume of 4× Laemmli buffer was added. Samples were heated at 95 °C for 2 min and resolved by 15% SDS-PAGE. Gels were scanned using a Typhoon Trio+ fluorescent scanner with excitation at 532 nm and an emission filter of 580 nm. Gel images were processed with ImageJ (background subtraction with rolling ball radius of 50 pixels and automated contrast adjustment).
(§6) Figure 2 Inhibition of caspase-3. (A) Competitive activity-based protein profiling (ABPP) experiments using ψ(CH2NH) or triazolo peptide derivatives 9–12 with or without irradiation. Compounds 9a–12a were used at 10 μM final concentration, 9b, 9c, 10b and 10c at 100 μM. Inh = caspase inhibitor biotin-DEVD-AOMK, used at 100 nM concentration. (B) Representative progress curves of fluorescence produced by Ac-DEVD-AMC (50 μM) cleavage by caspase-3, irradiated with or without 10 μM of the indicated compounds. (C) Bar graph of residual caspase-3 activity of replicate experiments (n = 2) of those in (B). (D) Inhibition of executioner’s caspase-3 and -7 in lysates of HEK293 cells, treated with cytochrome c/dATP to induce apoptosis.

In data set [4] the test system is caspase-3. Put plainly: Fluorogenic substrate (Ac-DEVD-AMC) cleavage assay. As to conditions: 10 μM compound, 2 nM caspase-3, 50 μM Ac-DEVD-AMC, HEPES pH 7.4 with 10 mM DTT, n = 2. It counts as biochemical. The procedure:
as §4
Purified caspase-3 (2 nM) was pre-activated by incubating in caspase reaction buffer (20 mm HEPES pH 7.4, 100 mM NaCl, 1 mM EDTA, 10% sucrose (w/v), 0.1% CHAPS (w/v), 10 mM DTT) for 15 min at 37 °C. Inhibitors 9a, 10a, and DMSO (control) were incubated with the caspase-3 at 10 μM final concentration. One set was irradiated with a handheld UV lamp at 365 nm for 30 min at room temperature whereas the control set was not irradiated. After 30 min, 99 μL of the sample was added to 1 μL of Ac-DEVD-AMC fluorogenic substrate (5 mM in dmso; 50 μM final concentration) in a black 96 well plate. The fluorescence intensity was read using an iD3 SpectraMax platereader (Molecular Devices; excitation wavelength: 340 nm; emission wavelength: 475 nm). The experiment was performed in duplicate. Activity was determined as the slope from the linear part of the progress curve by using GraphPad Prism.
as §6

Data set [5] deals with caspase-3. The experiment in a line: Competitive ABPP with UV pre-activation of the probes. It counts as biochemical. To be noted: compound irradiated at 365 nm for 30 min, light source removed, then added to caspase-3 for 30 min; fluorescent ABP read-out. The procedure: (§7) Compounds were irradiated with UV light of 365 nm for 30 min and after removal of the light source added to caspase-3. Residual caspase activity was measured by using a fluorescent caspase ABP as in our previous experiments above.
as §5, §3

Data set [6] is described as follows: LC-MS analysis of probes before and after UV irradiation. As to conditions: irradiation at 365 nm, gradient 10% to 95% acetonitrile with 0.1% formic acid. It counts as physicochemical. The protocol:
as §7, §2
All materials were purchased from Sigma Aldrich GmbH (GmbH, Darmstadt, Germany), Carl Roth GmbH + Co. KG (Karlsruhe, Germany), Thermo Fischer Scientific Inc. (Dreieich, Germany), Rapp Polymere GmbH (Tübingen, Germany), Applichem GmbH (Darmstadt, Germany), VWR International GmbH (Darmstadt, Germany), Merck KGaA (Darmstadt, Germany), CreoSalus Inc. (Louisville, KY, USA), and Iris Biotech GmbH (Marktredwitz, Germany) and were used as received, unless otherwise noted. TLC was performed on pre-coated ALUGRAM SIL G plates with detection by a handheld UV lamp (254 nm) and subsequent staining with potassium permanganate, p-anisaldehyde, ninhydrin or cerium ammonium molybdate. LC-MS analysis was performed on a Thermo LCQ Fleet HPLC-MS/MS system using a gradient of 10% to 95% acetonitrile containing 0.1% formic acid. NMR spectra were recorded on a Bruker Avance DRX 400 spectrometer with tetramethylsilane as internal standard. High resolution ESI-FTMS was performed on a Thermo Scientific LTQ Orbitrap Velos Pro mass spectrometer.

Where [7] appears, read: 10 μM compound, irradiated at 365 nm for 30 min at room temperature.
Setting [8] is: 100 μM compound, irradiated at 365 nm for 30 min at room temperature.
The mark [9] stands for this setting: 100 μM compound, non-irradiated.

With “Hexynoyl-Asp-Glu-Val-Aspψ(CH2NH)-Ala-NH2 [compound 15]”, the “Inhibition of caspase-3 after irradiation with benzophenone” value in the data set with caspase-3 [1] is “still led to inhibition”.

Consider “Ac-DEVD-aldehyde [Ac-DEVD peptide aldehyde, reference compound]”, for which the “Inhibition of caspase-3” value in the data set with caspase-3 [2] (100 nM, without bisulfite, 30 min incubation with caspase-3, fluorescent ABP read-out) was “efficiently inhibits caspase-3”.

Regarding “Hexynoyl-Bpa-Asp-Glu-Val-Asp(triazolo)-Ala-NH2 [11a]”, the “Inhibition of caspase-3 activity (caspase ABP labeling)” value (“Inhibition of caspase-3 activity” below) in the data set on caspase-3 [3] (setting [7]) was “did not”. Moreover, the “Inhibition of caspase-3 (competitive ABPP, Figure S1)” value in the data set on caspase-3 [3] is “not show efficient inhibition”.

With “Hexynoyl-Bpa-Asp-Glu-Val-Aspψ(CH2NH)-Ala-NH2 [9a]”, the “Inhibition of caspase-3 activity” value in the data set with caspase-3 [3] (setting [7]) is “complete inhibition”; in the data set on caspase-3 [3] (10 μM compound, non-irradiated), “no decrease in caspase ABP labeling”. The “Inhibition of Ac-DEVD-AMC cleavage by caspase-3” value with caspase-3 [4] (irradiated at 365 nm for 30 min at room temperature) was “complete blockage of substrate processing”; in the data set with caspase-3 [4] (not irradiated), “little to no inhibition”. Further, the “Inhibition of caspase-3 after UV pre-activation of compound” value (from here on “Inhibition … of compound”) in the data set with caspase-3 [5] was “still inhibited”. The “Inhibition of caspase-3 by irradiated sample exposed to sodium bisulfite” value in the data set with caspase-3 [2] (10 μM, irradiated 10 min, reacted with 10 mM NaHSO3 for 20 min, then 30 min with caspase-3, fluorescent ABP read-out) is “lose their inhibitory capacity”. For the same substance, the “Change of probe upon UV irradiation (LC-MS before and after)” value (shortened to “Change of probe upon UV irradiation”) in data set [6] is recorded as “did not show obvious changes”.

On to “Hexynoyl-Asp-Glu-Val-Aspψ(CH2NH)-Ala-p-azido-Phe-NH2 [10c]”, for which the “Inhibition of caspase-3 activity” value in the data set with caspase-3 [3] (setting [8]) is listed as “did not show any inhibition”.

Consider “Acetyl-Asp-Glu-Val-Aspψ(CH2NH)-Ala-NH2 [compound 14]”, for which the “Inhibition of caspase-3 after irradiation with benzophenone” value with caspase-3 [1] is given as “still led to inhibition”. In the data set with caspase-3 [1] (with or without benzophenone (BP) and UV irradiation), the “Requirement for inhibition of caspase-3” value is “needs both BP and UV irradiation”.

For the substance “Hexynoyl-p-azido-Phe-Asp-Glu-Val-Aspψ(CH2NH)-Ala-NH2 [9c]”, the “Inhibition of caspase-3 activity” value in the data set with caspase-3 [3] (setting [8]) is “did not show any inhibition”.

As to “Hexynoyl-Asp-Glu-Val-Asp(triazolo)-Ala-Bpa-Gly-NH2 [12a]”, in the data set on caspase-3 [3] (setting [7]), the “Inhibition of caspase-3 activity” value is reported as “some inhibition”. Besides, in the data set on caspase-3 [3], the “Inhibition of caspase-3 (competitive ABPP, Figure S1)” value is given as “inhibition that is nearly quantitative”.

Consider “Hexynoyl-Asp-Glu-Val-Aspψ(CH2NH)-Ala-photoLeu-NH2 [10b]”, for which the “Inhibition of caspase-3 activity” value is “complete inhibition” in the data set on caspase-3 [3] (setting [8]) and “no decrease in caspase ABP labeling” with caspase-3 [3] (setting [9]). The “Inhibition … of compound” value in the data set with caspase-3 [5] is given as “still inhibited”. Besides, the “Change of probe upon UV irradiation” value in data set [6] is on record as “loss of nitrogen”.

Turning to “Hexynoyl-photoLeu-Asp-Glu-Val-Aspψ(CH2NH)-Ala-NH2 [9b]”, the “Inhibition of caspase-3 activity” value is given as “complete inhibition” in the data set with caspase-3 [3] (setting [8]) and “no decrease in caspase ABP labeling” with caspase-3 [3] (setting [9]). In addition, in the data set with caspase-3 [5], the “Inhibition … of compound” value is “still inhibited”. The “Change of probe upon UV irradiation” value in data set [6] is given as “loss of nitrogen”.
